Measured values taken from patent US8680142B2, “Ascorbate, vitamin K3 and hydroxytolans in the treatment of cancer” (Kent State University, priority 2007, dated 2014).
Like-named read-outs stand apart in the source and are kept apart here.

Tests used:
[1] = tested on: normal cells; conditions: cited from earlier work
[2] = cited from earlier work
[3] = tested on: livers of nude mice; conditions: appreciably larger doses of VK3; cited from earlier work
[4] = tested on: gastrointestinal cancer patients; conditions: 43 patients; VK3 with mitomycin C; cited from earlier work
[5] = tested on: humans; conditions: cited from earlier work
[6] = tested on: tumor growth; conditions: cited from earlier work
[7] = tested on: advanced lung cancer patients; conditions: VK3 with mitomycin C, cited from earlier work
[8] = tested on: hepatoma; conditions: 10 mg/2 mL i.p. weekly for 4 weeks, cited from earlier work
[9] = tested on: T24 Human Bladder Cancer Cells; assay: MTT cytotoxicity assay against T24 cells; assay type: cell-based; conditions: for IC50: Homo sapiens; for increase of cytotoxic potency in the combination over compound alone: VC/HT-1 200:1 after VC+VK3 pretreatment
Method: After 1 or 2 days of incubation at 37° C. in humidified CO2 in air, a colorimetric MTT assay (see below) was performed to evaluate the number of remaining viable T24 cells in each well.
The hydroxytolan HT-1 was dissolved in DMSO as 2 mM stock and was then subsequently diluted in MEM so that the final DMSO concentration in any well was <1%. Doubling dilutions of this stock solution were carried out as above.
This assay measures the formation of a colored product produced from a chromogenic substrate, the tetrazole 3-[4,5-dimethylthiazol-2-yl]-2,5 diphenyltetrazolium bromide (“MTT”). The yellow MTT is reduced to purple formazan in the mitochondria of living cells. A solubilization solution (typically dimethyl sulfoxide or sodium dodecyl sulfate (SDS) in dilute hydrochloric acid) is added to dissolve the insoluble purple formazan product into a colored solution. The absorbance of this colored solution is quantified by measuring at a certain wavelength (usually between 500 and 600 nm) by a spectrophotometer. […] This MTT assay is used widely to assess the cytotoxicity and selectivity of compounds such as anti-cancer drugs. The assay is suitable for rapid toxicity characterization of a test agent such as a drug formulation.
A lower CD50 indicates a greater cytotoxic activity (as a lower amount of the agent is needed to achieve a fixed level of cytotoxicity). Two agents can be compared by examining the fold-increase or decrease in their CD50 values.
The CD50 values were interpolated from the curves generated using 12 serial dilutions. When individual compounds were used a single CD50 value is shown. When a combination of two compounds was used, the CD50 of both compounds is presented. Values shown are the mean±standard error of three experiments with six readings per experiment.

[10] = tested on: Mice; conditions: daily 6.5 g/Kg for 6 weeks and 2 g/Kg for 2 years; cited from earlier work
[11] = tested on: terminal cancer patients; conditions: cited from earlier work
[12] = tested on: patients with advanced cancer; conditions: 10 g oral VC; double-blind, placebo-controlled; cited from earlier work
[13] = T-24, 24 h, incubation time 1 day, compound alone, read-out: CD50 of compounds tested Individually
[14] = T-24, 48 h, incubation time 2 days, compound alone, read-out: CD50 of compounds tested Individually
[15] = T-24, read-out: CD50 of each compound tested in combination after pretreatment with VC and VK3, incubation time 1 day, VC:HT-1 200:1 mixture, 2 h pretreatment with 150 μM VC and 1.5 μM VK3
[16] = T-24, read-out: CD50 of each compound tested in combination after pretreatment with VC and VK3, incubation time 2 days, VC:HT-1 200:1 mixture, 2 h pretreatment with 150 μM VC and 1.5 μM VK3

SMILES: Oc1ccc(/C=C/c2cc(O)cc(O)c2)cc1 [resveratrol, 3,5,4′-trihydroxy-trans-stilbene]
- toxicity to normal cells [1]: significantly toxic to normal cells
- aqueous solubility [2]: relatively low aqueous solubility

SMILES: CC1=CC(=O)c2ccccc2C1=O [VK3, 2-methyl-1,4-naphthoquinone]
- hepatotoxicity [3]: no hepatotoxicity
- objective response [4]: no objective response
- maximum tolerated dose ([5]; 48-hour i.v. infusion, followed by mitomycin C every four weeks): 2.5 g/m^2
- toxicity ([5]; 400-500 mg/day over 3-5 consecutive days): without any appreciable toxicity
- hemolysis ([5]; VK3 2.5 g/m^2 then mitomycin C 15 mg/m2 every four weeks): no hemolysis
- inhibition of tumor growth ([6]; VK3 225 mg/kg/day with methotrexate): 84%
- inhibition of tumor growth ([6]; menadione 250 mg/kg/day with methotrexate 0.75 mg/kg/day): 99%
- median survival ([7]; 23 patients): 5.5 months
- patients with hematologic toxicity [7]: 30%
- patients with some tumor regression [7]: 26%
- long term survivors [8]: 5 out of 16
- survival ([8]; controls 17 days): 60 days
- water solubility ([2]; bisulfate form): water soluble

SMILES: Oc1ccc(C#Cc2ccc(O)cc2)cc1 [HT-1, 4,4′-dihydroxytolan]
- IC50 [9, 13]: 21.5 µM
- IC50 [9, 14]: 10.5 ± 2.7 µM
- IC50 [9, 15]: 1.13 µM
- IC50 [9, 16]: 0.94 ± 0.55 µM
- increase of cytotoxic potency in the combination over compound alone ([9]; after 1 day): about 19 fold
- increase of cytotoxic potency in the combination over compound alone ([9]; after 2 days): about 11 fold

SMILES: O=C1O[C@H]([C@@H](O)CO)C([O-])=C1O.[Na+] [VC, sodium ascorbate]
- mortality, weight changes, blood chemistry, hematology, histology, other pathologies [10]: no abnormal rates
- mean survival time (MST) ([11]; 100 terminal cancer patients, 10 g/day i.v. for 10 days, then 10 g/day orally, controls 50 days): > 210 days
- MST, ovarian cancer subjects ([11]; six treated subjects with ovarian cancer, controls 71 days): 148 days
- effectiveness of oral VC [12]: no benefits
- IC50 [9, 13]: 849 µM
- IC50 [9, 14]: 896 ± 59.8 µM
- IC50 [9, 15]: 226 µM
- IC50 [9, 16]: 187 ± 99 µM
